The values below are quoted from earlier work in patent EP0409862B1, “TOPICAL PREPARATIONS” (Seton Healthcare Group plc, priority 1988, dated 1989).

For `COC1=CC(=O)C[C@@H](C)[C@]12Oc1c(Cl)c(OC)cc(OC)c1C2=O` [Griseofulvin], the “solubility in various organic liquids such as alcohols” value is recorded as “soluble”. The solubility in water result (fine powder) is recorded as “essentially insoluble”.
